Measured values reported in patent US20140066842A1, “MICRONEEDLE DEVICES AND METHODS” (3M INNOVATIVE PROPERTIES COMPANY, priority 2011, published 2014).

Legend:
[1] = Discoloration of tissue in which local anesthetic/dose-extending component are administered; type: in vivo; conditions: dose-extending component administered with local anesthetic by the microneedle devices
[2] = In vivo delivery of lidocaine to swine skin tissue from coated microneedle array (biopsy, LC/MS/MS); conditions: dose-extending component delivered with lidocaine and/or prilocaine by microneedles
Procedure: The in vivo delivery of lidocaine to tissue using the coated microneedle array described above was determined using naïve young adult female mixed breed agricultural swine (Yorkshire X from Midwest Research Swine, Gibbon, Minn.). Swine with minimal skin pigmentation and weighing 10-40 kg were selected for the study. The animals were initially sedated with ketamine (10 mg/kg) and glycopyrrolate (0.011 mg/kg) was intramuscularly administered to reduce salivary, tracheobronchial, and pharyngeal secretions. Hair and dirt on pig skin at the intended application sites were removed prior to application of the microneedle array to minimize complications Skin test sites were selected based on lack of skin pigmentation and skin damage. The hair was first clipped using an electric shaver followed by shaving with a wet multi-blade disposable razor (Schick Xtreme3) and shaving cream (Gillette Foamy Regular) while the animal was under anesthesia.
A light surgical plane of anesthesia was achieved by administering 1.5-5% isoflurane in 1.5-4 L of oxygen by mask. Anesthetized animals were placed in lateral recumbency on insulated table pads. During the experiment, the animals were placed on a heated table to control body temperature at approximately 38° C. Animals were observed continuously until normal recovery was attained. […] The biopsy punch samples were stored at −20° C. until analyzed. […]
Protein precipitation was used to prepare the digested tissue samples for analysis by LC/MS/MS. […] The resulting sample was quantitatively analyzed using a Sciex API3000 triple quadrupole mass spectrometer (Applied Biosystems, Foster City, Calif.) running in positive ion mode using Turbo IonSpray interface to monitor the product ions resulting from the m/z transitions: 235→86.2 for lidocaine and 247→97.5 for mepivacaine. The linear range for lidocaine was 50.0 to 20,000 ng/mL evaluated using 1/x^2 curve weighting. […]

| Extension of the local anesthetic dose (tissue levels compared with local anesthetic without the alpha adrenergic agonist) [2] | Compound | Discoloration of the tissue [1] |
| --- | --- | --- |
| extend the local anesthetic dose | Nc1cc(Cl)c(N=C2NCCN2)c(Cl)c1 [apraclonidine] | without any appreciable tissue discoloration |
| extend the local anesthetic dose | Clc1cccc(Cl)c1N=C1NCCN1 [clonidine] | without any appreciable tissue discoloration |
| – | CNC[C@H](O)c1ccc(O)c(O)c1 [epinephrine] | cause discoloration of the tissue, resulting in a blue or bruised appearance |
| extend the local anesthetic dose | N=C(N)NC(=O)Cc1c(Cl)cccc1Cl [guanfacine] | without any appreciable tissue discoloration |
